Assays:
Assay in all cases: Example B2 herbicidal action, post-emergence, pots in glasshouse, evaluated after 13 days (10=total damage to plant; 0=no damage to plant)
Type in all cases: in vivo
Settings in all cases: rate 1000 g/ha
Setaria faberi = test system: Setaria faberi
Description: (§1) Seeds of a variety of test species were sown in standard soil in pots. After 8 days cultivation (post-emergence) under controlled conditions in a glasshouse (at 24/16° C., day/night; 14 hours light; 65% humidity), the plants were sprayed with an aqueous spray solution derived from the formulation of the technical active ingredient in acetone/water (50:50) solution containing 0.5% Tween 20 (polyoxyethelyene sorbitan monolaurate, CAS RN 9005-64-5). The test plants were then grown in a glasshouse under controlled conditions in a glasshouse (at 24/16° C., day/night; 14 hours light; 65% humidity) and watered twice daily. After 13 days, the test was evaluated (10=total damage to plant; 0=no damage to plant).

Solanum nigrum = test system: Solanum nigrum
Description: as §1

Echinochloa crus-galli = test system: Echinochloa crus-galli
Description: as §1

Amaranthus retroflexus = test system: Amaranthus retroflexus
Description: as §1

Ipomea hederaceae = test system: Ipomea hederaceae
Description: as §1

In the case of `CC(C)(C)C(=O)Oc1c(-c2c(Cl)cc(C(F)(F)F)cc2Cl)c(=O)n(CC(F)F)c2nccnc12` [A9], the “SETFA damage score (10=total damage to plant; 0=no damage to plant)” value (Setaria faberi) is reported as 9, the “SOLNI damage score (10=total damage to plant; 0=no damage to plant)” value (Solanum nigrum) is reported as 10 and the “ECHCG damage score (10=total damage to plant; 0=no damage to plant)” value (Echinochloa crus-galli) is reported as 7. For the same compound, the “AMARE damage score (10=total damage to plant; 0=no damage to plant)” value (Amaranthus retroflexus) was 10.

`CC(C)(C)C(=O)Oc1c(-c2ccc(C(F)(F)F)cc2Br)c(=O)n(CC(F)F)c2nccnc12` [A10] was tested, and the “SETFA damage score (10=total damage to plant; 0=no damage to plant)” value (Setaria faberi) was 3, the “SOLNI damage score (10=total damage to plant; 0=no damage to plant)” value (Solanum nigrum) was 9 and the “IPOHE damage score (10=total damage to plant; 0=no damage to plant)” value (Ipomea hederaceae) was 5. The “ECHCG damage score (10=total damage to plant; 0=no damage to plant)” value (Echinochloa crus-galli) was 4 and the “AMARE damage score (10=total damage to plant; 0=no damage to plant)” value (Amaranthus retroflexus) was 10.

For `CC(C)(C)C(=O)Oc1c(-c2c(Cl)cc(OC(F)(F)F)cc2Cl)c(=O)n(CC(F)F)c2nccnc12` [A11], the “SETFA damage score (10=total damage to plant; 0=no damage to plant)” value (Setaria faberi) was 9, the “SOLNI damage score (10=total damage to plant; 0=no damage to plant)” value (Solanum nigrum) was 10 and the “IPOHE damage score (10=total damage to plant; 0=no damage to plant)” value (Ipomea hederaceae) was 10. For the same compound, the “ECHCG damage score (10=total damage to plant; 0=no damage to plant)” value (Echinochloa crus-galli) was 9 and the “AMARE damage score (10=total damage to plant; 0=no damage to plant)” value (Amaranthus retroflexus) was 10.

`CCc1cc(C)cc(CC)c1-c1c(OC(=O)C(C)C)c2nccnc2n(CC(F)F)c1=O` [A12] was tested, and the “SETFA damage score (10=total damage to plant; 0=no damage to plant)” value (Setaria faberi) was 10, the “SOLNI damage score (10=total damage to plant; 0=no damage to plant)” value (Solanum nigrum) was 10 and the “IPOHE damage score (10=total damage to plant; 0=no damage to plant)” value (Ipomea hederaceae) was 9. For the same compound, the “ECHCG damage score (10=total damage to plant; 0=no damage to plant)” value (Echinochloa crus-galli) was 9 and the “AMARE damage score (10=total damage to plant; 0=no damage to plant)” value (Amaranthus retroflexus) was 3.

For `CC(C)C(=O)Oc1c(-c2cc(F)ccc2Cl)c(=O)n(CC(F)F)c2nccnc12` [A13], the “SETFA damage score (10=total damage to plant; 0=no damage to plant)” value (Setaria faberi) was 9, the “SOLNI damage score (10=total damage to plant; 0=no damage to plant)” value (Solanum nigrum) was 10 and the “IPOHE damage score (10=total damage to plant; 0=no damage to plant)” value (Ipomea hederaceae) was 10. The “ECHCG damage score (10=total damage to plant; 0=no damage to plant)” value (Echinochloa crus-galli) was 8 and the “AMARE damage score (10=total damage to plant; 0=no damage to plant)” value (Amaranthus retroflexus) was 10.

`CC(C)(C)C(=O)Oc1c(-c2cc(F)ccc2Cl)c(=O)n(CC(F)F)c2nccnc12` [A14] was tested, and the “SETFA damage score (10=total damage to plant; 0=no damage to plant)” value (Setaria faberi) was 9, the “SOLNI damage score (10=total damage to plant; 0=no damage to plant)” value (Solanum nigrum) was 10 and the “IPOHE damage score (10=total damage to plant; 0=no damage to plant)” value (Ipomea hederaceae) was 10. The “ECHCG damage score (10=total damage to plant; 0=no damage to plant)” value (Echinochloa crus-galli) was 7 and the “AMARE damage score (10=total damage to plant; 0=no damage to plant)” value (Amaranthus retroflexus) was 10.

In the case of `COc1cccc(-c2c(OC(=O)C(C)C)c3nccnc3n(CC(F)F)c2=O)c1OC` [A15], the “SETFA damage score (10=total damage to plant; 0=no damage to plant)” value (Setaria faberi) is reported as 9, the “SOLNI damage score (10=total damage to plant; 0=no damage to plant)” value (Solanum nigrum) is reported as 10 and the “IPOHE damage score (10=total damage to plant; 0=no damage to plant)” value (Ipomea hederaceae) is reported as 9. For the same compound, the “ECHCG damage score (10=total damage to plant; 0=no damage to plant)” value (Echinochloa crus-galli) was 8 and the “AMARE damage score (10=total damage to plant; 0=no damage to plant)” value (Amaranthus retroflexus) was 6.

For `COc1cccc(-c2c(OC(=O)C(C)(C)C)c3nccnc3n(CC(F)F)c2=O)c1OC` [A16], the “SETFA damage score (10=total damage to plant; 0=no damage to plant)” value (Setaria faberi) was 8, the “SOLNI damage score (10=total damage to plant; 0=no damage to plant)” value (Solanum nigrum) was 10 and the “IPOHE damage score (10=total damage to plant; 0=no damage to plant)” value (Ipomea hederaceae) was 7. The “ECHCG damage score (10=total damage to plant; 0=no damage to plant)” value (Echinochloa crus-galli) was 3 and the “AMARE damage score (10=total damage to plant; 0=no damage to plant)” value (Amaranthus retroflexus) was 8.

With `CC(C)(C)C(=O)Oc1c(-c2cc(F)c(Cl)cc2Cl)c(=O)n(CC(F)F)c2nccnc12` [A17] the “SETFA damage score (10=total damage to plant; 0=no damage to plant)” value (Setaria faberi) was 7, the “SOLNI damage score (10=total damage to plant; 0=no damage to plant)” value (Solanum nigrum) was 5 and the “IPOHE damage score (10=total damage to plant; 0=no damage to plant)” value (Ipomea hederaceae) was 0. For the same compound, the “ECHCG damage score (10=total damage to plant; 0=no damage to plant)” value (Echinochloa crus-galli) was 6 and the “AMARE damage score (10=total damage to plant; 0=no damage to plant)” value (Amaranthus retroflexus) was 3.

`CC(C)(C)C(=O)Oc1c(-c2c(F)ccc(Br)c2Cl)c(=O)n(CC(F)F)c2nccnc12` [A19] was tested, and the “SETFA damage score (10=total damage to plant; 0=no damage to plant)” value (Setaria faberi) was 8, the “SOLNI damage score (10=total damage to plant; 0=no damage to plant)” value (Solanum nigrum) was 10 and the “IPOHE damage score (10=total damage to plant; 0=no damage to plant)” value (Ipomea hederaceae) was 9. The “ECHCG damage score (10=total damage to plant; 0=no damage to plant)” value (Echinochloa crus-galli) was 7 and the “AMARE damage score (10=total damage to plant; 0=no damage to plant)” value (Amaranthus retroflexus) was 10.

In the case of `CC(C)C(=O)Oc1c(-c2cc(F)c(Cl)cc2Cl)c(=O)n(CC(F)F)c2nccnc12` [A20], the “SETFA damage score (10=total damage to plant; 0=no damage to plant)” value (Setaria faberi) is reported as 8, the “SOLNI damage score (10=total damage to plant; 0=no damage to plant)” value (Solanum nigrum) is reported as 9 and the “IPOHE damage score (10=total damage to plant; 0=no damage to plant)” value (Ipomea hederaceae) is reported as 7. For the same compound, the “ECHCG damage score (10=total damage to plant; 0=no damage to plant)” value (Echinochloa crus-galli) was 7 and the “AMARE damage score (10=total damage to plant; 0=no damage to plant)” value (Amaranthus retroflexus) was 10.

For `COc1ccc(OC(F)(F)F)cc1-c1c(OC(=O)C(C)C)c2nccnc2n(CC(F)F)c1=O` [A23], the “SETFA damage score (10=total damage to plant; 0=no damage to plant)” value (Setaria faberi) was 9, the “SOLNI damage score (10=total damage to plant; 0=no damage to plant)” value (Solanum nigrum) was 10 and the “IPOHE damage score (10=total damage to plant; 0=no damage to plant)” value (Ipomea hederaceae) was 9. For the same compound, the “ECHCG damage score (10=total damage to plant; 0=no damage to plant)” value (Echinochloa crus-galli) was 8 and the “AMARE damage score (10=total damage to plant; 0=no damage to plant)” value (Amaranthus retroflexus) was 10.

`Cc1cc(C)c(-c2c(OC(=O)C(C)(C)C)c3nccnc3n(CC(F)F)c2=O)c(C)c1` [A25] was tested, and the “SETFA damage score (10=total damage to plant; 0=no damage to plant)” value (Setaria faberi) was 7, the “SOLNI damage score (10=total damage to plant; 0=no damage to plant)” value (Solanum nigrum) was 10 and the “IPOHE damage score (10=total damage to plant; 0=no damage to plant)” value (Ipomea hederaceae) was 8. For the same compound, the “ECHCG damage score (10=total damage to plant; 0=no damage to plant)” value (Echinochloa crus-galli) was 7 and the “AMARE damage score (10=total damage to plant; 0=no damage to plant)” value (Amaranthus retroflexus) was 7.
